Data set [1] has as its system human cord-blood CD34+ cells. As to the kind of experiment: Human hematopoietic engraftment in male NSG mice transplanted with 5×10^4 human cord-blood CD34+ cells. The class given is in vivo, mouse. The method, then: Three-four months later, the animals were sacrificed and the human hematopoietic engraftment was analyzed by FACS. Human hematopoietic population was identified as the cells positive for hCD45-APC-Cy7 (Biolegend) and negative for mouse CD45.1-PE (Biolegend). In order to further examine the effect of the estrogen in HSCT, hematopoietic progenitors (hCD34+) and hematopoietic stem cells (hCD34+/hCD38−) were analyzed by FACS inside of the human population in the treated NSG described in Example 1.

The next data set relates to human cord blood CD34+. Kind of data set: Human engraftment in male NSG mice transplanted with a limited CD34+ cell dose (5×10^3). It counts as in vivo, mouse. As for the experimental part:
FIG. 6A indicates the level of human engraftment, which was raised by E4 administration. […] (Kruskal-Wallis test; P=0.1150, 7-10 mice per group). […] Three-four months later, the animals were sacrificed and the human hematopoietic engraftment was analyzed by FACS. Human hematopoietic population was identified as the cells positive for hCD45-APC-Cy7 (Biolegend) and negative for mouse CD45.1-PE (Biolegend). To determine whether estrogen can improve hematopoietic reconstitution of low number of hematopoietic progenitors, male NSG were irradiated and transplanted with low doses of human cord blood CD34+ (5×103 hCD34+). The human engraftment was analyzed as described in Example 1.

The subject of data set [2] is human hematopoietic progenitors (CB-CD34+). Kind of data set: LTC-IC human bone marrow-like co-culture (hMSC + hCD34+) and CFU assay. The class given is cell-based. The method, then: LTC-IC was established through the co-culture of human bone marrow Mesenchymal Stromal Cells (BM-MSC) and human progenitors (CB-CD34+) to research the positive effects of the estrogens in a human context, such as an in vitro human bone marrow model. LTC-ICs were treated with vehicle or 100 µM of E2 or E4 for a week. […] Cells were plated in methycellulose media with specific hematopoietic cytokines to evaluate the hematopoietic progenitor content. After 14 days, colony forming units (CFU) were counted. Data were normalized to control groups. […] 1×10^5 human mesenchymal stromal cells (hMSC) were seeded in a p6 well and irradiated with 30 Gy next day. The following day, 5×10^4 hCD34^+ were added to the hMSC in LTC-IC media: 75% α-MEM without Phenol Red (Life Technologies), 12.5% Hyclone FBS (GE Healthcare), HS (Life Technologies), β-mercaptoethanol (Life Technologies), 0.5% PS and 1×10^−6 M Hydrocortisone (Sigma-Aldrich). 100 μM of estrogens, dissolved in ethanol, was added to the co-culture for a week, and then the cells were collected and the amount of human hematopoietic progenitors were evaluated in semisolid media supplement with specific hematopoietic cytokines (H4535, StemCell Technologies) plus 8 U/ml hEPO. After fourteen days, colony-forming units (CFU) were evaluated and normalized to the control: […]

In the next data set the target is T1, ESRα (Homo sapiens, UniProt P03372).
T1 sequence (P03372 1-595): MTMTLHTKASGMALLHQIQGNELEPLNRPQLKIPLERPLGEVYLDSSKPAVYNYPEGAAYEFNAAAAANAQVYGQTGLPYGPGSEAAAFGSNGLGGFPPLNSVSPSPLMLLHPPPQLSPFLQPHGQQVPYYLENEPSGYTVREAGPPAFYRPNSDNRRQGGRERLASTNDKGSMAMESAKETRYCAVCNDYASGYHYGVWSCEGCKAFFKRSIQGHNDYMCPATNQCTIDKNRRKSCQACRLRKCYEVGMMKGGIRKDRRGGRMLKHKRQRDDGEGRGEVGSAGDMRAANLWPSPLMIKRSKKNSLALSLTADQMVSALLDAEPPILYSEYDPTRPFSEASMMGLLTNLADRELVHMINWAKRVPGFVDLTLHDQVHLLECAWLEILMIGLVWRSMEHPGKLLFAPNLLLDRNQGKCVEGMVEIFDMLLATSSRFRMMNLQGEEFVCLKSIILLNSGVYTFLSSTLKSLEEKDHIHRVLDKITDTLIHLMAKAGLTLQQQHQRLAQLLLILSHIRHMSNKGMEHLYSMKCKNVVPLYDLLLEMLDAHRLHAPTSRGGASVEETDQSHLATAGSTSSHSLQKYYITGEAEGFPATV
The settings on record: cited from earlier work.

Data set [3] addresses T2, sex hormone-binding globulin (SHBG) (Homo sapiens, UniProt P04278).
T2 sequence (P04278 30-402): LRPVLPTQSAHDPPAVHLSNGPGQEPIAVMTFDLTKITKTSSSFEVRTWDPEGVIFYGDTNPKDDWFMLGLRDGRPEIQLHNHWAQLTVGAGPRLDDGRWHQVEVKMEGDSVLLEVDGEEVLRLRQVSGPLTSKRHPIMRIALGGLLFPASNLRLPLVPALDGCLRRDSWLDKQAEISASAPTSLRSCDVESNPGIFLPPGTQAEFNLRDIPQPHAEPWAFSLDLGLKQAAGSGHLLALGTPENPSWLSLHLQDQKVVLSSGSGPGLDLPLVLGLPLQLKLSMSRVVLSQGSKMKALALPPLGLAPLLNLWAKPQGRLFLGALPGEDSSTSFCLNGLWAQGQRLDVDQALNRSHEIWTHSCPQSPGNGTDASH
The note with it: cited from earlier work.

`C[C@]12CC[C@@H]3c4ccc(O)cc4CC[C@H]3[C@@H]1[C@@H](O)[C@@H](O)[C@@H]2O` [E4, estetrol]: the “Percentage in the human hematopoietic population: hematopoietic stem cells” value in data set [1] (hCD34+/hCD38−, male NSG, 5×10^4 CD34+, 2 μg daily for four days, mean +/− SEM) is listed as 0.87 +/− 0.11 (n = 11) %. In data set [1] (hCD34+, male NSG, 5×10^4 CD34+, 2 μg daily for four days, mean +/− SEM), the “Percentage in the human hematopoietic population: hematopoietic progenitors” value was 13.94 +/− 0.85 (n = 11) %. Besides, the “Percentage of human hematopoietic reconstitution” value in data set [1] (male NSG, 5×10^4 CD34+, 2 μg daily for four days, three-four months later, mean +/− SEM) is 47.47 +/− 6.08 (n = 9) %. Besides, in data set [1] (male NSG, 5×10^4 CD34+, 2 μg daily for four days, CD19+, mean +/− SEM), the “Percentage in the human hematopoietic population: Lymphoid” value is given as 81.22 +/− 4.83 (n = 5) %. Moreover, in data set [1] (male NSG, 5×10^4 CD34+, 2 μg daily for four days, CD33+, mean +/− SEM), the “Percentage in the human hematopoietic population: Myeloid” value is reported as 8.24 +/− 1.65 (n = 5) %. Also, in data set [1] (three months post-transplant, Kruskal-Wallis P<0.05), the “human hematopoietic progenitors (hCD34+) and human HSC (hCD34+CD38−) in the human engraftment, significance” value is “statistically significant differences compared to controls and E2 treated group”. Also, the “proportion of engrafted mice (human engraftment above 0.1%)” value with human cord blood CD34+ (5×10^3 CB-CD34+) is 70%. The “change of the proportion of engrafted mice versus vehicle” value with human cord blood CD34+ (limited HPC dose, engraftment above 0.1%) is listed as “almost tripled”. Also, the “Percentage of human hematopoietic reconstitution” value in the data set with human cord blood CD34+ (low dose 5×103 hCD34+, mean +/− SEM) is 3.20 +/− 1.43 (n = 9) %. In data set [2] (100 μM estrogen for a week, CFU after fourteen days, normalized to control, mean +/− SEM), the “Normalized human CFU” value is 1.98 +/− 0.23 (n = 6). In addition, the “total number of primitive hematopoietic progenitors in LTC-IC” value in data set [2] (100 μM for a week, versus vehicle) was “almost doubled”. On ESRα, the “affinity for ER relative to β-estradiol” value is “less affinity than β-estradiol” and the “affinity for ESRα versus ESRβ” value is reported as “high affinity for ESRα as compared to the ESRβ”. In data set [3], the “binding by SHBG” value was “not bound”.

(Values after patent US20210386756A1, “IMPROVEMENTS FOR PERFORMING AND FACILITATING THE RECOVERY AFTER HEMATOPOIETIC STEM CELL TRANSPLANTATION” (Centro de Investigaciones Energéticas, Medioambientales y …, priority 2018, published 2021).)
